Assay results reported in US10351575B2, “Bicyclic urea, thiourea, guanidine and cyanoguanidine compounds useful for the treatment of pain” (Array BioPharma Inc., priority 2012, dated 2019).

Columns and labels:
Experiment in all cases: KinaseProfiler off-target kinase profiling
Assay type in all cases: biochemical
Details in all cases: 10 μM, ATP near Km
[1] = molecular target: AKT3 (Homo sapiens (Human), UniProt Q9Y243)
How it was run: (§1)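 Tested once at 10 μM, in two replicates, under near-Km ATP for the given kinase; result expressed as mean POC.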

[2] = molecular target: ALK4 (Homo sapiens (Human), UniProt P36896)
How it was run: as §1

[3] = molecular target: Abl-P (Homo sapiens (Human), UniProt P00519)
How it was run: as §1

[4] = molecular target: CAMK2b (Homo sapiens (Human), UniProt Q13554)
How it was run: as §1

[5] = molecular target: CDK1/cyclinB (Homo sapiens (Human), UniProt P06493)
How it was run: as §1

[6] = molecular target: CDK3/cyclinE (Homo sapiens (Human), UniProt Q00526)
How it was run: as §1

[7] = molecular target: CDK6/cyclinD3 (Homo sapiens (Human), UniProt Q00534)
How it was run: as §1

[8] = molecular target: CDK9/cyclinT1 (Homo sapiens (Human), UniProt P50750)
How it was run: as §1

[9] = molecular target: CK1gamma3 (Homo sapiens (Human), UniProt Q9Y6M4)
How it was run: as §1

[10] = molecular target: DAPK1 (Homo sapiens (Human), UniProt P53355)
How it was run: as §1

[11] = molecular target: DMPK (Homo sapiens (Human), UniProt Q09013)
How it was run: as §1

[12] = molecular target: ERK1 (Homo sapiens (Human), UniProt P27361)
How it was run: as §1

[13] = molecular target: EphA3 (Homo sapiens (Human), UniProt P29320)
How it was run: as §1

[14] = molecular target: EphB1 (Homo sapiens (Human), UniProt P54762)
How it was run: as §1

[15] = molecular target: FGFR1 (Homo sapiens (Human), UniProt P11362)
How it was run: as §1

[16] = molecular target: Fyn (Homo sapiens (Human), UniProt P06241)
How it was run: as §1

[17] = molecular target: GRK6 (Homo sapiens (Human), UniProt P43250)
How it was run: as §1

[18] = molecular target: GRK7 (Homo sapiens (Human), UniProt Q8WTQ7)
How it was run: as §1

[19] = molecular target: HIPK1 (Homo sapiens (Human), UniProt Q86Z02)
How it was run: as §1

[20] = molecular target: JAK3 (Homo sapiens (Human), UniProt P52333)
How it was run: as §1

[21] = molecular target: JNK3 (Homo sapiens (Human), UniProt P53779)
How it was run: as §1

[22] = molecular target: MAPKAP-K3 (Homo sapiens (Human), UniProt Q16644)
How it was run: as §1

[23] = molecular target: MKNK2 (Homo sapiens (Human), UniProt Q9HBH9)
How it was run: as §1

[24] = molecular target: MLK1 (Homo sapiens (Human), UniProt P80192)
How it was run: as §1

[25] = molecular target: PAK5 (Homo sapiens (Human), UniProt Q9P286)
How it was run: as §1

[26] = molecular target: PKCbetaI (Homo sapiens (Human), UniProt P05771)
How it was run: as §1

[27] = molecular target: PKCbetaII (Homo sapiens (Human), UniProt P05771)
How it was run: as §1

[28] = molecular target: PKD2 (Homo sapiens (Human), UniProt Q9BZL6)
How it was run: as §1

[29] = molecular target: ROCK-II (Homo sapiens (Human), UniProt O75116)
How it was run: as §1

[30] = molecular target: SIK (Homo sapiens (Human), UniProt P57059)
How it was run: as §1

[31] = molecular target: SRPK1 (Homo sapiens (Human), UniProt Q96SB4)
How it was run: as §1

[32] = molecular target: TAO3 (Homo sapiens (Human), UniProt Q9H2K8)
How it was run: as §1

[33] = molecular target: TBK1 (Homo sapiens (Human), UniProt Q9UHD2)
How it was run: as §1

[34] = molecular target: Tie2 (Homo sapiens (Human), UniProt Q02763)
How it was run: as §1

[35] = molecular target: ULK3 (Homo sapiens (Human), UniProt Q6PHR2)
How it was run: as §1

[36] = molecular target: WNK3 (Homo sapiens (Human), UniProt Q9BYP7)
How it was run: as §1

[37] = molecular target: mTOR (Homo sapiens (Human), UniProt P42345)
How it was run: as §1

[38] = molecular target: mTOR/FKBP12 (Homo sapiens (Human), UniProt P42345)
How it was run: as §1

[39] = molecular target: p70S6K (Homo sapiens (Human), UniProt P23443)
How it was run: as §1

Chain of CDK1/cyclinB (P06493 whole entry): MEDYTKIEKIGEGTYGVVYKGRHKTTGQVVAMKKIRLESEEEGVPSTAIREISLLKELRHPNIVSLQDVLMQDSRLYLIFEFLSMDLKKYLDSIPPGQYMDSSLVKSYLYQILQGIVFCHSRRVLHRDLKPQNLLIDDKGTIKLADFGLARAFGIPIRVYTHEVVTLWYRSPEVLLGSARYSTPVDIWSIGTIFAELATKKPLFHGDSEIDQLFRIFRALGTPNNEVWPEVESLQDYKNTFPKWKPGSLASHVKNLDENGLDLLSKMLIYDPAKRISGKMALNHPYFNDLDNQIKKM
Chain of CDK1/cyclinB (P14635 whole entry partner): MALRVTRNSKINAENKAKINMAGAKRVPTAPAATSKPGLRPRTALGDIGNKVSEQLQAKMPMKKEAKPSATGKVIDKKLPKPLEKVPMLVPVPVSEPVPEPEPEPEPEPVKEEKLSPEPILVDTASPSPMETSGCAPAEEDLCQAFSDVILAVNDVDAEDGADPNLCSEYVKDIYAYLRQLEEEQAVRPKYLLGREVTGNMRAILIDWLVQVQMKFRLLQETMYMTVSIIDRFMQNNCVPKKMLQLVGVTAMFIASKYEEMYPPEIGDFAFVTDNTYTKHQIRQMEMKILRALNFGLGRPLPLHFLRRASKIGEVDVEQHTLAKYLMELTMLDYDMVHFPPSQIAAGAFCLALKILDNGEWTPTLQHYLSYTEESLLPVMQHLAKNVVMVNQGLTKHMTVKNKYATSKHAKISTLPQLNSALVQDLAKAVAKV
Chain of Tie2 (Q02763 23-1124): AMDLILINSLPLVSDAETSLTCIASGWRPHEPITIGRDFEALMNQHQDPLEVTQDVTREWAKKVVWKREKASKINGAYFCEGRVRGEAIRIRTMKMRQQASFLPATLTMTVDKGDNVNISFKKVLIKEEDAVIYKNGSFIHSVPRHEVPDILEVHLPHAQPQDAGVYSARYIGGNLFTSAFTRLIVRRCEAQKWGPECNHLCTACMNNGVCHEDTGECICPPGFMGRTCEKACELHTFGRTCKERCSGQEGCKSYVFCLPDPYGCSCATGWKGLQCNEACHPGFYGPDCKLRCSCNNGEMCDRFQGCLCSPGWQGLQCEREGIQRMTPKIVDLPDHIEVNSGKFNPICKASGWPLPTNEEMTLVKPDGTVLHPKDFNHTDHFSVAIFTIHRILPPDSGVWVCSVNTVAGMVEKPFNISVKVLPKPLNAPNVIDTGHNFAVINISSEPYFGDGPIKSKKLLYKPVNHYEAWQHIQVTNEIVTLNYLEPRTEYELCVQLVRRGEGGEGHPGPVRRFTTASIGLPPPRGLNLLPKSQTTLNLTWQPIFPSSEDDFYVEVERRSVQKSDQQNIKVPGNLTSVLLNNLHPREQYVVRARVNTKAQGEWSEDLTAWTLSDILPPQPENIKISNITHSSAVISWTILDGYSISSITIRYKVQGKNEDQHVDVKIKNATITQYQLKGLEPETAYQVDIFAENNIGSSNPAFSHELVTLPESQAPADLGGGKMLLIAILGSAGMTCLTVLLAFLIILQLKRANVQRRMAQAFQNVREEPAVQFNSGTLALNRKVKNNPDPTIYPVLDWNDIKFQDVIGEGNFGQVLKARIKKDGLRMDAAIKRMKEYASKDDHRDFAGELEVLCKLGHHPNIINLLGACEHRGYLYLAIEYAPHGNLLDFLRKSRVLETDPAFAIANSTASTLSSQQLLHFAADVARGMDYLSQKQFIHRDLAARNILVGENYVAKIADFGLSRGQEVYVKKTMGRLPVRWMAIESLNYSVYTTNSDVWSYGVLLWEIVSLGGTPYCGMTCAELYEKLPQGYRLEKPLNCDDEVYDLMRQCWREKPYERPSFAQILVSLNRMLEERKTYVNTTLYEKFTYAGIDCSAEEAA
Chain of PKCbetaI (P05771 whole entry): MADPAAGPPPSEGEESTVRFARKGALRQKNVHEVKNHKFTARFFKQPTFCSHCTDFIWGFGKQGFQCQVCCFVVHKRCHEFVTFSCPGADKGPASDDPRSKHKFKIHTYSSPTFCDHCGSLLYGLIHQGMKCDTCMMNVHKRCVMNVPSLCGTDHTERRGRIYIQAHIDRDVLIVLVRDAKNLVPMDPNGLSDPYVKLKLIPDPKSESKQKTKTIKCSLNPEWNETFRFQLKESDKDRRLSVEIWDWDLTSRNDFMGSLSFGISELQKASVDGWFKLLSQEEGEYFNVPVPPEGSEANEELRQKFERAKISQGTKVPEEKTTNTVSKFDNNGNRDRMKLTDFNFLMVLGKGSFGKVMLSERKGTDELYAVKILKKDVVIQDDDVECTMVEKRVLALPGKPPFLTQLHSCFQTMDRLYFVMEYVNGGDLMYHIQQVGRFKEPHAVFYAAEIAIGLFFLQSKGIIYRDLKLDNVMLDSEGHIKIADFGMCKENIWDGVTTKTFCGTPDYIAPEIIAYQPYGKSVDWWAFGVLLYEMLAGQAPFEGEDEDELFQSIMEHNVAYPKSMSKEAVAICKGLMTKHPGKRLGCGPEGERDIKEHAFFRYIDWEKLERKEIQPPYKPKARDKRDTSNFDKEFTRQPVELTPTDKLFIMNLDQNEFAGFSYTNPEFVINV
Chain of CDK9/cyclinT1 (P50750 whole entry): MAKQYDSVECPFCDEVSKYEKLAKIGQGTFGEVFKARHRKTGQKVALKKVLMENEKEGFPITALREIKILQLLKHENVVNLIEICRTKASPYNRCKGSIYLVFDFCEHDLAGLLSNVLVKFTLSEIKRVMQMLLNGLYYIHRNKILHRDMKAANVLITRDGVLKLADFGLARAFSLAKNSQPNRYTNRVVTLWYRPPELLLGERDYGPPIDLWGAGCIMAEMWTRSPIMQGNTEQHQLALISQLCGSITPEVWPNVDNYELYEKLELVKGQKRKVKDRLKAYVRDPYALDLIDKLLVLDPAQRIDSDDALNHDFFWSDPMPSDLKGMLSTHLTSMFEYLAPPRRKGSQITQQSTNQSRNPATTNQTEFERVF
Chain of CDK9/cyclinT1 (O60563 whole entry partner): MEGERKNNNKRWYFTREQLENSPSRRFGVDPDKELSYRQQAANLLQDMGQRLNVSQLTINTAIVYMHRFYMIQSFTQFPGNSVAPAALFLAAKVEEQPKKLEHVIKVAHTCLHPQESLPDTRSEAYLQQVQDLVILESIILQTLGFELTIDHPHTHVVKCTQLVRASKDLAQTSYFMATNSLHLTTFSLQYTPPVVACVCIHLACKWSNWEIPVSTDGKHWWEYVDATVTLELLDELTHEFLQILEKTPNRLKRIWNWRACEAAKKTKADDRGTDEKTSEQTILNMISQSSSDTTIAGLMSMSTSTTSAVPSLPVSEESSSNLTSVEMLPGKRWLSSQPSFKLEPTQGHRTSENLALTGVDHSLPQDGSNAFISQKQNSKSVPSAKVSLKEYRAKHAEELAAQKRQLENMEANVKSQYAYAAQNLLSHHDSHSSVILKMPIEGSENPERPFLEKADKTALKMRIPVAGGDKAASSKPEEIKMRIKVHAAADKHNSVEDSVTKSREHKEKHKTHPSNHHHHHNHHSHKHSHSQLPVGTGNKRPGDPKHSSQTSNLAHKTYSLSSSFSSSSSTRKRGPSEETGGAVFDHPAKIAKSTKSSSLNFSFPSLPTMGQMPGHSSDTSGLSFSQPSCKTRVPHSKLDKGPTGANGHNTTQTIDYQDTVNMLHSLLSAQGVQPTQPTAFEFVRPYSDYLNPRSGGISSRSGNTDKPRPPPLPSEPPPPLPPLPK
Chain of MKNK2 (Q9HBH9 whole entry): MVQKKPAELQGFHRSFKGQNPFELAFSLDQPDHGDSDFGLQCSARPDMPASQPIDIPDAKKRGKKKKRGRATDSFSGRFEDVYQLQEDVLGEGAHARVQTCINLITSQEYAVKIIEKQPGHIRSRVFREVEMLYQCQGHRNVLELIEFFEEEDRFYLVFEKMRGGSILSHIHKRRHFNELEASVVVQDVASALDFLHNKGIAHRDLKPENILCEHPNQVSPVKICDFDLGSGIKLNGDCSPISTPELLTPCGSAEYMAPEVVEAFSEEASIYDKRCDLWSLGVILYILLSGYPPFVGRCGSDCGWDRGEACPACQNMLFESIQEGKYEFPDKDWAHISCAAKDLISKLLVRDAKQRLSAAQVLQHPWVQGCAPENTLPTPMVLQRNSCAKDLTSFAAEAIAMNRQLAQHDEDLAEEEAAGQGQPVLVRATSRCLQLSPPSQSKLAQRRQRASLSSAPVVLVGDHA
Chain of CK1gamma3 (Q9Y6M4 whole entry): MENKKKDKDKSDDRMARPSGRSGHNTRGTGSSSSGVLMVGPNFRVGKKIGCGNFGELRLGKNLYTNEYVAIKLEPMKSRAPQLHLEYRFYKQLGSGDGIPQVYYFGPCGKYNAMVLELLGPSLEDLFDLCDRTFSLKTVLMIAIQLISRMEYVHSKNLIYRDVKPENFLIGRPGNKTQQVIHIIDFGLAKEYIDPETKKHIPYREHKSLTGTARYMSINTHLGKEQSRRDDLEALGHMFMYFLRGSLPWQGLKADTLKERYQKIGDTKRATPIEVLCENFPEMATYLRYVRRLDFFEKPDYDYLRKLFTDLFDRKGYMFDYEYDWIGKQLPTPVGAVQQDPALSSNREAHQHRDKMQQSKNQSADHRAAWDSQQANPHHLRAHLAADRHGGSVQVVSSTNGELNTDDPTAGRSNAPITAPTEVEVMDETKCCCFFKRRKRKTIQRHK
Chain of ALK4 (P36896 24-505): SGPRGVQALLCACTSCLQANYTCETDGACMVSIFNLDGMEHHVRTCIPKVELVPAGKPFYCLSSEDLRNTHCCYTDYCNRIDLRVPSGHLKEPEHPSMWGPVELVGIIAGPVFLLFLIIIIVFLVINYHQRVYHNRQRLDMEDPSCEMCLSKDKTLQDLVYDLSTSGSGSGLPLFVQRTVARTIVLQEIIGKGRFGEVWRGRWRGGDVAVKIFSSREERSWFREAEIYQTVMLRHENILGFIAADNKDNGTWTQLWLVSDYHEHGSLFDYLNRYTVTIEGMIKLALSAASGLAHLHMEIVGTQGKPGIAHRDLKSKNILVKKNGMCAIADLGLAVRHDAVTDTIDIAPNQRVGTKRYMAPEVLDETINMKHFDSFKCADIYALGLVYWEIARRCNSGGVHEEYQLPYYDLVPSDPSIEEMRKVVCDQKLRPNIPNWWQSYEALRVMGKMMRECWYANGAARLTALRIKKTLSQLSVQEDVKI

Avg. POC [1] [POC]	Avg. POC [2] [POC]	Avg. POC [3] [POC]	Avg. POC [4] [POC]	Avg. POC [5] [POC]	Avg. POC [6] [POC]	Avg. POC [7] [POC]	Avg. POC [8] [POC]	Avg. POC [9] [POC]	Avg. POC [10] [POC]	Avg. POC [11] [POC]	Avg. POC [12] [POC]	Avg. POC [13] [POC]	Avg. POC [14] [POC]	Avg. POC [15] [POC]	Avg. POC [16] [POC]	Avg. POC [17] [POC]	Avg. POC [18] [POC]	Avg. POC [19] [POC]	Avg. POC [20] [POC]	Compound	also measured
116.5	98.5	146.5	106.5	122.5	105.5	100	127	118	108.5	105	120.5	123.5	108.5	114	123.5	103.5	108.5	97	142.5	Cc1c(-c2cnn(C)c2)nn(-c2ccccc2)c1NC(=O)N[C@H]1CCCc2ccccc21 [Example 2, (S)-1-(1′,4-dimethyl-1-phenyl-1H,1′H-3,4′-bipyrazol-5-yl)-3-(1,2,3,4-tetrahydronaphthalen-1-yl)urea]	Avg. POC [21]: 117.5 POC; Avg. POC [22]: 128 POC; Avg. POC [23]: 106.5 POC; Avg. POC [24]: 75 POC; Avg. POC [25]: 109.5 POC; Avg. POC [26]: 99 POC; Avg. POC [27]: 95.5 POC; Avg. POC [28]: 102 POC; Avg. POC [29]: 108 POC; Avg. POC [30]: 121.5 POC; Avg. POC [31]: 122 POC; Avg. POC [32]: 111 POC; Avg. POC [33]: 116 POC; Avg. POC [34]: 126 POC; Avg. POC [35]: 105 POC; Avg. POC [36]: 109.5 POC; Avg. POC [37]: 116 POC; Avg. POC [38]: 105 POC; Avg. POC [39]: 172 POC
94	101	135.5	106	107.5	98.5	103	106	104.5	136	104	105	114.5	114	90	92.5	103	117	102.5	112	Cc1c(-c2cnn(C)c2)nn(-c2ccccc2)c1NC(=O)NC1CCOc2cc(F)ccc21 (stereo not drawn) [Example 12, 1-(1′,4-dimethyl-1-phenyl-1H,1′H-[3,4′-bipyrazol]-5-yl)-3-(7-fluorochroman-4-yl)urea]	Avg. POC [21]: 107.5 POC; Avg. POC [22]: 112 POC; Avg. POC [23]: 103.5 POC; Avg. POC [24]: 103.5 POC; Avg. POC [25]: 143 POC; Avg. POC [26]: 93.5 POC; Avg. POC [27]: 100 POC; Avg. POC [28]: 94 POC; Avg. POC [29]: 99 POC; Avg. POC [30]: 133.5 POC; Avg. POC [31]: 97.5 POC; Avg. POC [32]: 99 POC; Avg. POC [33]: 103 POC; Avg. POC [34]: 104.5 POC; Avg. POC [35]: 89.5 POC; Avg. POC [36]: 112.5 POC; Avg. POC [37]: 104.5 POC; Avg. POC [38]: 105.5 POC; Avg. POC [39]: 124.5 POC
96	102.5	131	107	103	101.5	104.5	112.5	102.5	135	106	109.5	128	116.5	104.5	115.5	100.5	118	111	112	Cc1c(-c2ccc(=O)n(C)c2)nn(-c2ccccc2)c1NC(=O)NC1CN(CC(F)(F)F)Cc2ccccc21 (stereo not drawn) [Example 26, 1-(4-methyl-3-(1-methyl-6-oxo-1,6-dihydropyridin-3-yl)-1-phenyl-1H-pyrazol-5-yl)-3-(2-(2,2,2-trifluoroethyl)-1,2,3,4-tetrahydroisoquinolin-4-yl)urea]	Avg. POC [21]: 116 POC; Avg. POC [22]: 108.5 POC; Avg. POC [23]: 99.5 POC; Avg. POC [24]: 105.5 POC; Avg. POC [25]: 121.5 POC; Avg. POC [26]: 89 POC; Avg. POC [27]: 99 POC; Avg. POC [28]: 102 POC; Avg. POC [29]: 110 POC; Avg. POC [30]: 121.5 POC; Avg. POC [31]: 102.5 POC; Avg. POC [32]: 109 POC; Avg. POC [33]: 113 POC; Avg. POC [34]: 106.5 POC; Avg. POC [35]: 92.5 POC; Avg. POC [36]: 103.5 POC; Avg. POC [37]: 102.5 POC; Avg. POC [38]: 107.5 POC; Avg. POC [39]: 116 POC
77.5	100.5	124.5	102.5	104	102.5	108	106.5	102	131	98.5	107	122	145.5	104.5	111	101	117.5	115	109.5	COCc1ccc2c(c1)C(NC(=O)Nc1c(C)c(-c3cnn(C)c3)nn1-c1ccccc1)COC2 (stereo not drawn) [Example 32, 1-(1′,4-dimethyl-1-phenyl-1H,1′H-[3,4′-bipyrazol]-5-yl)-3-(6-(methoxymethyl)isochroman-4-yl)urea]	Avg. POC [21]: 104 POC; Avg. POC [22]: 105 POC; Avg. POC [23]: 99.5 POC; Avg. POC [24]: 104.5 POC; Avg. POC [25]: 111 POC; Avg. POC [26]: 80 POC; Avg. POC [27]: 100.5 POC; Avg. POC [28]: 110.5 POC; Avg. POC [29]: 106 POC; Avg. POC [30]: 97 POC; Avg. POC [31]: 99.5 POC; Avg. POC [32]: 105 POC; Avg. POC [33]: 108.5 POC; Avg. POC [34]: 121 POC; Avg. POC [35]: 92 POC; Avg. POC [36]: 103.5 POC; Avg. POC [37]: 94.5 POC; Avg. POC [38]: 113.5 POC; Avg. POC [39]: 110.5 POC
